Data as given in article PMC12004362 (RSC Advances, 2025).
Like-named read-outs stand apart in the source and are kept apart here.

Assays:
BT-16 cells = assay: Secondary screening; format: cell-based, human
BT-12 cells = assay: Secondary screening; format: cell-based, human
in vitro [1] = conditions: human, primary human astrocytes
in vitro [2] = conditions: human
primary human astrocytes = assay: Cytotoxicity test
[3] = tested on: human cerebral microvascular endothelial cells (hCMEC/D3 cells)
[4] = acute use for gout flares, doses up to 1.8 mg within 2 hours; cited from earlier work
[5] = Homo sapiens, BT-16, 72 h, read-out: BT-16 cells IC50, 2D culture, 72 h, MTT
[6] = read-out: BT-16 cells IC50, 2D culture, 72 h, MTT
[7] = Homo sapiens, BT-12, 72 h, read-out: BT-12 cells IC50, 2D culture, 72 h, MTT
[8] = read-out: BT-12 cells IC50, 2D culture, 72 h, MTT

| IC50 (BT-16 cells; [5]) [nM] | IC50 (BT-12 cells; [7]) [nM] | SMILES | IC50 (BT-16 cells; [6]) [nM] | IC50 (BT-12 cells; [8]) [nM] | CC50 at 72 h (in vitro [1]) [nM] | CC50 at 72 h (in vitro [2]) [nM] | SI (CC50/IC50) Astrocytes: BT-12 (primary human astrocytes; CC50 astrocytes / IC50 BT-12) | SI (CC50/IC50) Astrocytes: BT-16 (primary human astrocytes; CC50 astrocytes / IC50 BT-16) | SI (CC50/IC50) hCMEC/D3: BT-12 ([3]; CC50 hCMEC/D3 / IC50 BT-12) | SI (CC50/IC50) hCMEC/D3: BT-16 ([3]; CC50 hCMEC/D3 / IC50 BT-16) | Diarrhea, most frequently reported side effect [4] [%] |
| --- | --- | --- | --- | --- | --- | --- | --- | --- | --- | --- | --- |
| < 100 | < 100 | C[C@H]1O[C@@H](O[C@H]2[C@@H](O)C[C@H](O[C@H]3[C@@H](O)C[C@H](O[C@H]4CC[C@@]5(C)[C@H](CC[C@@H]6[C@@H]5C[C@@H](O)[C@]5(C)[C@@H](C7=CC(=O)OC7)CC[C@]65O)C4)O[C@@H]3C)O[C@@H]2C)C[C@H](O)[C@@H]1O [Digoxin] | 76 | 80 | – | – | – | – | – | – | – |
| 42 | 28 | COc1cccc2c1C(=O)c1c(O)c3c(c(O)c1C2=O)C[C@@](O)(C(=O)CO)C[C@@H]3O[C@H]1C[C@H](N)[C@H](O)[C@H](C)O1 [Doxorubicin] | – | – | 131 | 699 | 4.679 | 3.119 | 24.964 | 16.64 | – |
| – | – | COc1cc2c(c(OC)c1OC)-c1ccc(OC)c(=O)cc1[C@@H](NC(C)=O)CC2 [Colchicine] | – | – | > 20000 | > 20000 | – | – | – | – | 23 |

| SMILES | IC50 (BT-16 cells; [5]) [nM] | IC50 (BT-12 cells; [7]) [nM] | IC50 (BT-16 cells; [6]) [nM] | IC50 (BT-12 cells; [8]) [nM] | CC50 at 72 h (in vitro [1]) [nM] | CC50 at 72 h (in vitro [2]) [nM] | SI (CC50/IC50) Astrocytes: BT-12 (primary human astrocytes; CC50 astrocytes / IC50 BT-12) | SI (CC50/IC50) Astrocytes: BT-16 (primary human astrocytes; CC50 astrocytes / IC50 BT-16) | SI (CC50/IC50) hCMEC/D3: BT-12 ([3]; CC50 hCMEC/D3 / IC50 BT-12) | SI (CC50/IC50) hCMEC/D3: BT-16 ([3]; CC50 hCMEC/D3 / IC50 BT-16) | Diarrhea, most frequently reported side effect [4] [%] |
| --- | --- | --- | --- | --- | --- | --- | --- | --- | --- | --- | --- |
| CC[C@H]1CN2CCc3cc(OC)c(OC)cc3[C@@H]2C[C@@H]1C[C@H]1NCCc2cc(OC)c(OC)cc21 [Emetine] | < 100 | < 100 | 93 | 90 | 1240 | – | – | – | – | – | – |
